The target of the test is T1, CynT2 (Escherichia coli, UniProt P61517).
T1 construct: gene can; oligomer not determined (dimer or tetramer stated for bacterial beta-CAs in general)
Kind of test: stopped-flow CO2 hydrase assay, phenol red. The test is classed as biochemical.

Like-named read-outs stand apart in the source and are kept apart here. A value given as a limit tells only on which side of the number the result lay.

T1 sequence (P61517 whole entry): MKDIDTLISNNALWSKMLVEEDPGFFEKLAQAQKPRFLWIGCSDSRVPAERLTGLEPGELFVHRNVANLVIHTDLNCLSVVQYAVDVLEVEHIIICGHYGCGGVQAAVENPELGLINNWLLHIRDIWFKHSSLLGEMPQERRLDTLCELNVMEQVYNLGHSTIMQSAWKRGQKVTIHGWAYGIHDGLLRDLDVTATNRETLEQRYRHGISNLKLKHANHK

In the case of `CCN[C@H]1CN(CCCOC)S(=O)(=O)c2sc(S(N)(=O)=O)cc21` [BRZ, Brinzolamide], the Ki (read-out: KI *(nM) / CynT2) turned out to be 2050 nM.

As to `NS(=O)(=O)c1nnc(NS(=O)(=O)c2ccccc2)s1` [BZA, Benzolamide], the Ki (read-out: KI *(nM) / CynT2) came to 276 nM.

For the molecule `Cc1ccc(-c2cc(C(F)(F)F)nn2-c2ccc(S(N)(=O)=O)cc2)cc1` [CLX, Celecoxib], the Ki (read-out: KI *(nM) / CynT2) was 1890 nM.

In the case of `NS(=O)(=O)c1cc(Cl)c(Cl)c(S(N)(=O)=O)c1` [DCP, Dichlorophenamide], the Ki (read-out: KI *(nM) / CynT2) was above 10000 nM.

On to `NS(=O)(=O)NCCNc1nonc1C(=NO)Nc1ccc(F)c(Br)c1` [EPA, Epacadostat], for which the Ki (read-out: KI *(nM) / CynT2) was found to be 2560 nM.

For `NC(N)=Nc1nc(CSCCC(N)=NS(N)(=O)=O)cs1` [FAM, Famotidine], the Ki (read-out: KI *(nM) / CynT2) was 2770 nM.

On to `NS(=O)(=O)c1cc2c(cc1Cl)NCNS2(=O)=O` [HCT, Hydrochlorothiazide], for which the Ki (read-out: KI *(nM) / CynT2) worked out at 5010 nM.

For the molecule `NS(=O)(=O)c1ccc(S(=O)(=O)Nc2cccc3c(Cl)c[nH]c23)cc1` [IND, Indisulam], the Ki (read-out: KI *(nM) / CynT2) was 2390 nM.

As to `CC(=O)N=c1sc(S(N)(=O)=O)nn1C` [MZA, Methazolamide], the Ki (read-out: KI *(nM) / CynT2) was found to be 480 nM.

For `O=C1NS(=O)(=O)c2ccccc21` [SAC, Saccharin], for the setting “read-out: KI *(nM) / CynT2”, the Ki is 6690 nM.

Regarding `CCN1CCCC1CNC(=O)c1cc(S(N)(=O)=O)ccc1OC` (centres unmarked) [SLP, Sulpiride], the Ki (read-out: KI *(nM) / CynT2) is 97 nM.

On to `NS(=O)(=O)c1ccc(N2CCCCS2(=O)=O)cc1` [SLT, Sulthiame], for which the Ki (read-out: KI *(nM) / CynT2) was determined as 285 nM.

Consider `CC1(C)O[C@@H]2[C@@H](CO[C@@]3(COS(N)(=O)=O)OC(C)(C)O[C@@H]23)O1` [TPM, Topiramate], for which the Ki (read-out: KI *(nM) / CynT2) turned out to be 3360 nM.

On to `Cc1onc(-c2ccccc2)c1-c1ccc(S(N)(=O)=O)cc1` [VLX, Valdecoxib], for which the Ki (read-out: KI *(nM) / CynT2) is 2750 nM.

Regarding `NS(=O)(=O)Cc1noc2ccccc12` [ZNS, Zonisamide], under “read-out: KI *(nM) / CynT2”, the Ki is 3190 nM.

As to `Nc1cccc(S(N)(=O)=O)c1` [compound 1, 1], the Ki (read-out: KI *(nM) / CynT2) turned out to be 705 nM.

With `Nc1ccc(S(N)(=O)=O)cc1` [compound 2, 2], for the setting “read-out: KI *(nM) / CynT2”, the Ki is 790 nM.

As for `NS(=O)(=O)c1cccc(S(N)(=O)=O)c1` [compound 3, 3], the Ki (read-out: KI *(nM) / CynT2) worked out at 457 nM.

For the molecule `Cc1ccc(S(N)(=O)=O)cc1` [compound 4, 4], the Ki (read-out: KI *(nM) / CynT2) worked out at 3010 nM.

Take `NCc1ccc(S(N)(=O)=O)cc1` [compound 5, 5]: for the setting “read-out: KI *(nM) / CynT2”, the Ki was 2840 nM.

`NCCc1ccc(S(N)(=O)=O)cc1` [compound 6, 6] displayed a Ki of 3320 nM.

As to `Nc1ccc(S(N)(=O)=O)cc1F` [compound 7, 7], the Ki (read-out: KI *(nM) / CynT2) is above 10000 nM.

In the case of `Nc1ccc(S(N)(=O)=O)cc1Cl` [compound 8, 8], the Ki (read-out: KI *(nM) / CynT2) is above 10000 nM.

`Nc1ccc(S(N)(=O)=O)cc1Br` [compound 9, 9]: the Ki (read-out: KI *(nM) / CynT2) came out at 2710 nM.

With `NS(=O)(=O)c1cc(Cl)cc(Cl)c1O` [compound 10, 10], for the setting “read-out: KI *(nM) / CynT2”, the Ki was 8560 nM.

As to `Nc1cc(C(F)(F)F)c(S(N)(=O)=O)cc1S(N)(=O)=O` [compound 11, 11], for the setting “read-out: KI *(nM) / CynT2”, the Ki was determined as 6250 nM.

For `Nc1cc(Cl)c(S(N)(=O)=O)cc1S(N)(=O)=O` [compound 12, 12], for the setting “read-out: KI *(nM) / CynT2”, the Ki was 4390 nM.

As for `Nc1nnc(S(N)(=O)=O)s1` [compound 13, 13], the Ki (read-out: KI *(nM) / CynT2) was 4120 nM.

As to `Cn1nc(S(N)(=O)=O)sc1=N` [compound 14, 14], under “read-out: KI *(nM) / CynT2”, the Ki came out at 440 nM.

`NS(=O)(=O)c1ccc(O)cc1` [compound 15, 15]: the Ki (read-out: KI *(nM) / CynT2) is 6440 nM.

Regarding `NS(=O)(=O)c1ccc(CO)cc1` [compound 16, 16], for the setting “read-out: KI *(nM) / CynT2”, the Ki came to 2340 nM.

As for `NS(=O)(=O)c1ccc(CCO)cc1` [compound 17, 17], where the note is “read-out: KI *(nM) / CynT2”, the Ki is 502 nM.

With `NS(=O)(=O)c1ccc(C(=O)O)cc1` [compound 18, 18], the Ki (read-out: KI *(nM) / CynT2) was 205 nM.

For `Nc1nccc(Nc2ccc(S(N)(=O)=O)cc2)n1` [compound 19, 19], for the setting “read-out: KI *(nM) / CynT2”, the Ki was 416 nM.

As for `Nc1ccc(S(=O)(=O)Nc2nnc(S(N)(=O)=O)s2)cc1` [compound 20, 20], the Ki (read-out: KI *(nM) / CynT2) was determined as 726 nM.

As for `Nc1ccc(S(=O)(=O)Nc2ccc(S(N)(=O)=O)cc2)cc1` [compound 22, 22], the Ki (read-out: KI *(nM) / CynT2) worked out at 93 nM.

Consider `Nc1ccc(S(=O)(=O)NCc2ccc(S(N)(=O)=O)cc2)cc1` [compound 23, 23], for which the Ki (read-out: KI *(nM) / CynT2) amounted to 322 nM.

On to `Nc1ccc(S(=O)(=O)NCCc2ccc(S(N)(=O)=O)cc2)cc1` [compound 24, 24], for which the Ki (read-out: KI *(nM) / CynT2) came out at 82 nM.

For the origin of these results see article PMC7312386, “The Effect of Substituted Benzene-Sulfonamides and Clinically Licensed Drugs on the Catalytic Activity of CynT2, a Carbonic Anhydrase Crucial for Escherichia coli Life Cycle” (International Journal of Molecular Sciences, 2020).
